ChEMBL document CHEMBL6120974, “Hydrazide-Based Class I Selective HDAC Inhibitors Completely Reverse Chemoresistance Synergistically in Platinum-Resistant Solid Cancer Cells” (J Med Chem, 2024)
Calls of active or inactive are those of the source. The rule behind the calls is not given here.

Assays:
A2780 [1] = test: Cytotoxicity against human A2780 cells at < 100 uM assessed as reduction in cell viability incubated for 72 hrs by MTT assay; assay type: functional, cell-based
CAL-27 [2] = test: cells; settings: Homo sapiens, CAL-27, 72 h
Description: Cytotoxicity against human CAL-27 cells assessed as reduction in cell viability incubated for 72 hrs by MTT assay

[3] = target: T1, Protein deacetylase HDAC6 (Homo sapiens) (UniProt Q9UBN7); test: (§1) Inhibition of N-terminal GST-tagged full length recombinant human HDAC6 (1 to 1215 end residues) expressed in sf9 cells at > 10 uM using ZMAL (Z-Lys(Ac)-AMC as fluorogenic substrate preincubated with compound for 60 mins followed by substrate addition and measured after 90 mins by fluorescence based microplate reader analysis relative to control; settings: time 150.0 min
T1 sequence (whole entry): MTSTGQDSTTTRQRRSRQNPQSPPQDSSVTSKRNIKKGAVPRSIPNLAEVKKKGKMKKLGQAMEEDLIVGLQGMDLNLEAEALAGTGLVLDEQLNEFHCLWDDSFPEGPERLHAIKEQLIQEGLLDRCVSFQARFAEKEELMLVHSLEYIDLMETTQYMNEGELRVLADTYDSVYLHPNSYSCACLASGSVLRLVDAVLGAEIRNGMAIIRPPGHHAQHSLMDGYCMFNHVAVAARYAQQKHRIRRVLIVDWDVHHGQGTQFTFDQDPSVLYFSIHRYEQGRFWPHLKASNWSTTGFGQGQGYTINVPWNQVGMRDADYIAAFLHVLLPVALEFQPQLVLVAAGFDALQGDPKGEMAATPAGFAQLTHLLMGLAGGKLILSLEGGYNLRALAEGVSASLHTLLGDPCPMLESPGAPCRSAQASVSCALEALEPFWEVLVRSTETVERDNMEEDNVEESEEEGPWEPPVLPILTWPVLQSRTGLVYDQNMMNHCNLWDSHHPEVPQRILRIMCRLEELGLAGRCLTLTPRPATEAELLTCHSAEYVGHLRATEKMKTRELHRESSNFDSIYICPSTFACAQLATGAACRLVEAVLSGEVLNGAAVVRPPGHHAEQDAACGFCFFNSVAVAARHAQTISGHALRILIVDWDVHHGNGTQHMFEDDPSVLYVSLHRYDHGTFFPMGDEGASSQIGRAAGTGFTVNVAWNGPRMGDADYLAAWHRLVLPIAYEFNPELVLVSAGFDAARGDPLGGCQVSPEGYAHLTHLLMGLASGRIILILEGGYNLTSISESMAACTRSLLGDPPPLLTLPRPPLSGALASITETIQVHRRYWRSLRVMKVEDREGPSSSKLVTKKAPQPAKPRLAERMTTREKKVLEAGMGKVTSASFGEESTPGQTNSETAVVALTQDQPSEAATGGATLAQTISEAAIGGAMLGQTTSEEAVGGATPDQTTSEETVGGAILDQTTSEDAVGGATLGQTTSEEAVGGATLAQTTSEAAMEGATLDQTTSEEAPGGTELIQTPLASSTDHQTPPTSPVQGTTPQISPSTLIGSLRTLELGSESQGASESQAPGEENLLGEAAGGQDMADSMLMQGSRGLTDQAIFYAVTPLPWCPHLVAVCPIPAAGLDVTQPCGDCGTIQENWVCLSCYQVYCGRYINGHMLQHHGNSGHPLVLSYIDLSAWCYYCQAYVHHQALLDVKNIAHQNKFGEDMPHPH

cells [4] = settings: Homo sapiens, CAL-27
Description: Inhibition of class I/6 HDAC (unknown origin) in human CAL-27 cells using Boc-Lys(epsilon-Ac)-AMC as substrate preincubated with compound for 18 hrs followed by substrate addition and measured after 3 hrs by NOVOstar microplate reader analysis

cells [5] = settings: Homo sapiens, A2780cisR
Description: Inhibition of class I/6 HDAC (unknown origin) in cisplatin resistant human A2780 cisR cells using Boc-Lys(epsilon-Ac)-AMC as substrate preincubated with compound for 18 hrs followed by substrate addition and measured after 3 hrs by NOVOstar microplate reader analysis

Histone deacetylase 4 = Histone deacetylase 4 (Homo sapiens, UniProt P56524); test: Inhibition of recombinant HDAC4 (unknown origin) using Bos-Lys(TFA)-AMC as substrate preincubated with compound for 5 mins and measured after 90 mins by NOVOstar microplate reader analysis
cells [6] = settings: Homo sapiens, A2780
Description: Inhibition of class I/6 HDAC (unknown origin) in human A2780 cells using Boc-Lys(epsilon-Ac)-AMC as substrate preincubated with compound for 18 hrs followed by substrate addition and measured after 3 hrs by NOVOstar microplate reader analysis

[7] = target: T2, Histone deacetylase 8 (Homo sapiens) (UniProt Q9BY41); test: Inhibition of recombinant HDAC8 (unknown origin) at > 10 uM using Bos-Lys(TFA)-AMC as substrate preincubated with compound for 5 mins and measured after 90 mins by NOVOstar microplate reader analysis relative to control; settings: time 95.0 min
T2 sequence (whole entry): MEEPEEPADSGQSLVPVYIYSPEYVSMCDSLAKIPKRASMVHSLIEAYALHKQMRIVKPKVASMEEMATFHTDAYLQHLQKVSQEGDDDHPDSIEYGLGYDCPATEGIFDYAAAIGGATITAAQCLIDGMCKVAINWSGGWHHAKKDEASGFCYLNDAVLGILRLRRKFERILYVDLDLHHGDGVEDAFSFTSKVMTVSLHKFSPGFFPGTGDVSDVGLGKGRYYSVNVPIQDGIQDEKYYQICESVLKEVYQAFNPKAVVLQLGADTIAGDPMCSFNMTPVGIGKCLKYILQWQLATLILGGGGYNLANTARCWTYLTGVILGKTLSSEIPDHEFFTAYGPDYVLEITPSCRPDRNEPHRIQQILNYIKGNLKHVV

A2780cisR [8] = test: Cytotoxicity against cisplatin resistant human A2780 cisR cells at < 100 uM assessed as reduction in cell viability incubated for 72 hrs by MTT assay; assay type: functional, cell-based
Cal27CisR = test: Cytotoxicity against cisplatin resistant human Cal27CisR cells at < 10 uM assessed as reduction in cell viability incubated for 72 hrs by MTT assay; assay type: functional, cell-based
[9] = target: Histone deacetylase 3/Nuclear receptor corepressor 2 (HDAC3/NCoR2) (Homo sapiens, UniProt O15379); assay type: cell-based, Sf9
Histone deacetylase 8 = target: T3, Histone deacetylase 8 (Homo sapiens, UniProt Q9BY41); test: Inhibition of recombinant HDAC8 (unknown origin) using Bos-Lys(TFA)-AMC as substrate preincubated with compound for 5 mins and measured after 90 mins by NOVOstar microplate reader analysis
T3 sequence (Q9BY41 whole entry): T2 sequence (whole entry)

cells [10] = settings: Homo sapiens, Cal27CisR
Description: Inhibition of class I/6 HDAC (unknown origin) in cisplatin resistant human Cal27CisR cells using Boc-Lys(epsilon-Ac)-AMC as substrate preincubated with compound for 18 hrs followed by substrate addition and measured after 3 hrs by NOVOstar microplate reader analysis

[11] = target: T4, Protein deacetylase HDAC6 (Homo sapiens, UniProt Q9UBN7); test: as §1, with “cells” for “cells at > 10 uM”, “analysis” for “analysis relative to control”
T4 sequence (Q9UBN7 whole entry): T1 sequence (whole entry)

A2780cisR [12] = test: cells; settings: Homo sapiens, 72 h
cells [13] = settings: Homo sapiens, CAL-27; remark: listed apart in the source
Description: Inhibition of class IIa/8 HDAC (unknown origin) in human CAL-27 cells using Boc-Lys(TFA)-AMC as substrate preincubated with compound for 18 hrs followed by substrate addition and measured after 3 hrs by NOVOstar microplate reader analysis

cells [14] = settings: Homo sapiens, Cal27CisR; remark: listed apart in the source
Description: Inhibition of class IIa/8 HDAC (unknown origin) in cisplatin resistant human Cal27CisR cells using Boc-Lys(TFA)-AMC as substrate preincubated with compound for 18 hrs followed by substrate addition and measured after 3 hrs by NOVOstar microplate reader analysis

cells [15] = settings: Homo sapiens, A2780cisR; remark: listed apart in the source
Description: Inhibition of class IIa/8 HDAC (unknown origin) in cisplatin resistant human A2780 cisR cells using Boc-Lys(TFA)-AMC as substrate preincubated with compound for 18 hrs followed by substrate addition and measured after 3 hrs by NOVOstar microplate reader analysis

cells [16] = settings: Homo sapiens, Cal27CisR, 72 h
Description: Cytotoxicity against cisplatin resistant human Cal27CisR cells assessed as reduction in cell viability incubated for 72 hrs by MTT assay

cells [17] = settings: Homo sapiens, A2780; remark: listed apart in the source
Description: Inhibition of class IIa/8 HDAC (unknown origin) in human A2780 cells using Boc-Lys(TFA)-AMC as substrate preincubated with compound for 18 hrs followed by substrate addition and measured after 3 hrs by NOVOstar microplate reader analysis

A2780 [18] = test: cells; settings: Homo sapiens, A2780, 72 h
Description: Cytotoxicity against human A2780 cells assessed as reduction in cell viability incubated for 72 hrs by MTT assay

[19] = target: T1, Protein deacetylase HDAC6 (Homo sapiens); test: as §1, with “3.33” for “10”
[20] = target: T5, Histone deacetylase 3/Nuclear receptor corepressor 2 (HDAC3/NCoR2) (Homo sapiens) (UniProt O15379+Q9Y618); test: as §1, with “C-terminal His tagged human” for “N-terminal GST-tagged full length”, “HDAC3” for “human HDAC6”, “428” for “1215”, “residues)/N-terminal GST-tagged human NcoR2” for “residues)”, “at” for “at >”; settings: time 150.0 min
[21] = target: Histone deacetylase 2 (Homo sapiens) (UniProt Q92769); test: as §1, with “C-terminal FLAG tagged” for “N-terminal GST-tagged”, “length human” for “length”, “HDAC2” for “human HDAC6”, “488” for “1215”, “at” for “at >”; settings: time 150.0 min
Histone deacetylase 1 = Histone deacetylase 1 (Homo sapiens, UniProt Q13547); test: as §1, with “C-terminal 6-his/FLAG tagged” for “N-terminal GST-tagged”, “length human” for “length”, “HDAC1” for “human HDAC6”, “482” for “1215”, “at” for “at >”; settings: time 150.0 min
[22] = target: T1, Protein deacetylase HDAC6 (Homo sapiens); test: as §1, with “at” for “at >”; settings: time 150.0 min
A2780 cisR = test: Inhibition of class I/6 HDAC (unknown origin) in cisplatin resistant human A2780 cisR cells at < 100 uM using Boc-Lys(epsilon-Ac)-AMC as substrate preincubated with compound for 18 hrs followed by substrate addition and measured after 3 hrs by NOVOstar microplate reader analysis; assay type: cell-based
[23] = target: T5, Histone deacetylase 3/Nuclear receptor corepressor 2 (HDAC3/NCoR2) (Homo sapiens); test: as §1, with “C-terminal His tagged human” for “N-terminal GST-tagged full length”, “HDAC3” for “human HDAC6”, “428” for “1215”, “residues)/N-terminal GST-tagged human NcoR2” for “residues)”; settings: time 150.0 min
CAL-27 [24] = test: Cytotoxicity against human CAL-27 cells at < 100 uM assessed as reduction in cell viability incubated for 72 hrs by MTT assay; assay type: functional, cell-based
A2780 [25] = test: Inhibition of class I/6 HDAC (unknown origin) in human A2780 cells at < 100 uM using Boc-Lys(epsilon-Ac)-AMC as substrate preincubated with compound for 18 hrs followed by substrate addition and measured after 3 hrs by NOVOstar microplate reader analysis; assay type: cell-based

Chain of Histone deacetylase 3/Nuclear receptor corepressor 2 (HDAC3/NCoR2) (O15379 whole entry): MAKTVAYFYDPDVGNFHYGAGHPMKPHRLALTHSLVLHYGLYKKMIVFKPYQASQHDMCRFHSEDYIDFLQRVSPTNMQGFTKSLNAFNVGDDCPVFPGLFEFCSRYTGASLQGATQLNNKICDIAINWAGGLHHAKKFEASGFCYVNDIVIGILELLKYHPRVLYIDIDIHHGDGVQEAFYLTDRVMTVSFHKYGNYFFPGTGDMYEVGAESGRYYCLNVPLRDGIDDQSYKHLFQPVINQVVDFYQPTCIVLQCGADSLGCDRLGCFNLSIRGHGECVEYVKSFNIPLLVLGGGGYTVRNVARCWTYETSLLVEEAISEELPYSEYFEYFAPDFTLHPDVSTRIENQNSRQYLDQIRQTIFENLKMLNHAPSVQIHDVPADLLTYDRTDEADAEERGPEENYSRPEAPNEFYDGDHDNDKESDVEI
Chain of Histone deacetylase 3/Nuclear receptor corepressor 2 (HDAC3/NCoR2) (Q9Y618 whole entry, further chain): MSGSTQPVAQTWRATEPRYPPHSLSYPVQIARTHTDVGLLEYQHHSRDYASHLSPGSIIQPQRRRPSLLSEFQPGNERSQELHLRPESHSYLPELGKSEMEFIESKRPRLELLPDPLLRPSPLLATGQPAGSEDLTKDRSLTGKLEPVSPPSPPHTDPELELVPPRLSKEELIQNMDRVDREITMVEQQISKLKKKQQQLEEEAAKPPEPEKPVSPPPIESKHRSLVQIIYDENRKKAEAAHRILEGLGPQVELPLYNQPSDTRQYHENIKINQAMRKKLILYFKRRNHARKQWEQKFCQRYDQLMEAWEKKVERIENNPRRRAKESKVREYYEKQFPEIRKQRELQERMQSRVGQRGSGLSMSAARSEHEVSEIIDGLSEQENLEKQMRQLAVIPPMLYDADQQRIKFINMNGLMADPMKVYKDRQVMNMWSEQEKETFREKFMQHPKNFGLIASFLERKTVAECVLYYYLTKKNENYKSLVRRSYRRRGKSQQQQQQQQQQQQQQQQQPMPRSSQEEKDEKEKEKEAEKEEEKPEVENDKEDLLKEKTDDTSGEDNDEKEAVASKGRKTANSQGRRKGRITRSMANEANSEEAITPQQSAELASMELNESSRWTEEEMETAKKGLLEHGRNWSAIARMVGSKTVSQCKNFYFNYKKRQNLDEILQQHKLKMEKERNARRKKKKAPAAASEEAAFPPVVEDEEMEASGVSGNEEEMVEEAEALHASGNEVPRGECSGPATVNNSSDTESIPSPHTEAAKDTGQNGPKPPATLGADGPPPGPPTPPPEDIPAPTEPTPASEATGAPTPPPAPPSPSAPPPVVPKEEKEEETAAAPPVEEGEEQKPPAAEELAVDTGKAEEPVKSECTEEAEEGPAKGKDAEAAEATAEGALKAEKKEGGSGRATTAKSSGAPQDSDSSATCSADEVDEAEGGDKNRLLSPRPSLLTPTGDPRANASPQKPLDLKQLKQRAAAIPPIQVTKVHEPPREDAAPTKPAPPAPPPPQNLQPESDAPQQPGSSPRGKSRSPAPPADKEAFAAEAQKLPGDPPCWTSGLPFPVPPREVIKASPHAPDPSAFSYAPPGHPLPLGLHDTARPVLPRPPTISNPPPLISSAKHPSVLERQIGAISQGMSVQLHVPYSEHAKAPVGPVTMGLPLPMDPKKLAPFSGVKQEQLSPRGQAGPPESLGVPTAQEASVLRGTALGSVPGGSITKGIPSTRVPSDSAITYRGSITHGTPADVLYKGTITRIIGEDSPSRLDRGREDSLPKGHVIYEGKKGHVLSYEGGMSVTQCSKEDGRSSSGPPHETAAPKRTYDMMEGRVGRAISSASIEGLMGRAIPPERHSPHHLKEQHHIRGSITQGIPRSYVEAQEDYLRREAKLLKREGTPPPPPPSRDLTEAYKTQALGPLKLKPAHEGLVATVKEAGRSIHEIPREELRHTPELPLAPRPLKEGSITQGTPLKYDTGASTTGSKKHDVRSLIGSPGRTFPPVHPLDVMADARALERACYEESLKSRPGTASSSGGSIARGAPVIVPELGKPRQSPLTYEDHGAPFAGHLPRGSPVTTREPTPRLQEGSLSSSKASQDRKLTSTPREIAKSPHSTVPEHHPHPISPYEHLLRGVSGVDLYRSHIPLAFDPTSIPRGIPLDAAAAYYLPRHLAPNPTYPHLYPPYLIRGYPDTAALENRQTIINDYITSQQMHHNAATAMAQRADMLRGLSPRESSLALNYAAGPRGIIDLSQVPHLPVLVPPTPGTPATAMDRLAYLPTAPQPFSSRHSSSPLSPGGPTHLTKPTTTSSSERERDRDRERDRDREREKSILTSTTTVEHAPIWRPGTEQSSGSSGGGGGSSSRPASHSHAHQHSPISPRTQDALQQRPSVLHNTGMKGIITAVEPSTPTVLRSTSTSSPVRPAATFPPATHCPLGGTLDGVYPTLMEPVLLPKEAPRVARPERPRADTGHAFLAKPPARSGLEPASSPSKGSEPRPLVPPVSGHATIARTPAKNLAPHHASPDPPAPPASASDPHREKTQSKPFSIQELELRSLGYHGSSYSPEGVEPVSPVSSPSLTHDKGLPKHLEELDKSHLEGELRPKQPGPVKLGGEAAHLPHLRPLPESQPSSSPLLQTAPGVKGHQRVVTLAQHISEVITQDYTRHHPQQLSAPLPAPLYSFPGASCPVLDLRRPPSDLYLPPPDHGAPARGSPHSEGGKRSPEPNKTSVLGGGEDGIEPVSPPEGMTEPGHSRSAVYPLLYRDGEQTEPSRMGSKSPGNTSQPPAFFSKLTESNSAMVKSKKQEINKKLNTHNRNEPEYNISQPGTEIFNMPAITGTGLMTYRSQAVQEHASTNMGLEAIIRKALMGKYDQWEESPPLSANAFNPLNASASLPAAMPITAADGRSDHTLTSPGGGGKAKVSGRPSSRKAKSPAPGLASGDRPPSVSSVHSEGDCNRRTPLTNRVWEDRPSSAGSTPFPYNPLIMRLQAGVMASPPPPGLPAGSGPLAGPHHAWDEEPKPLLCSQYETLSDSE
Chain of Histone deacetylase 4 (P56524 whole entry): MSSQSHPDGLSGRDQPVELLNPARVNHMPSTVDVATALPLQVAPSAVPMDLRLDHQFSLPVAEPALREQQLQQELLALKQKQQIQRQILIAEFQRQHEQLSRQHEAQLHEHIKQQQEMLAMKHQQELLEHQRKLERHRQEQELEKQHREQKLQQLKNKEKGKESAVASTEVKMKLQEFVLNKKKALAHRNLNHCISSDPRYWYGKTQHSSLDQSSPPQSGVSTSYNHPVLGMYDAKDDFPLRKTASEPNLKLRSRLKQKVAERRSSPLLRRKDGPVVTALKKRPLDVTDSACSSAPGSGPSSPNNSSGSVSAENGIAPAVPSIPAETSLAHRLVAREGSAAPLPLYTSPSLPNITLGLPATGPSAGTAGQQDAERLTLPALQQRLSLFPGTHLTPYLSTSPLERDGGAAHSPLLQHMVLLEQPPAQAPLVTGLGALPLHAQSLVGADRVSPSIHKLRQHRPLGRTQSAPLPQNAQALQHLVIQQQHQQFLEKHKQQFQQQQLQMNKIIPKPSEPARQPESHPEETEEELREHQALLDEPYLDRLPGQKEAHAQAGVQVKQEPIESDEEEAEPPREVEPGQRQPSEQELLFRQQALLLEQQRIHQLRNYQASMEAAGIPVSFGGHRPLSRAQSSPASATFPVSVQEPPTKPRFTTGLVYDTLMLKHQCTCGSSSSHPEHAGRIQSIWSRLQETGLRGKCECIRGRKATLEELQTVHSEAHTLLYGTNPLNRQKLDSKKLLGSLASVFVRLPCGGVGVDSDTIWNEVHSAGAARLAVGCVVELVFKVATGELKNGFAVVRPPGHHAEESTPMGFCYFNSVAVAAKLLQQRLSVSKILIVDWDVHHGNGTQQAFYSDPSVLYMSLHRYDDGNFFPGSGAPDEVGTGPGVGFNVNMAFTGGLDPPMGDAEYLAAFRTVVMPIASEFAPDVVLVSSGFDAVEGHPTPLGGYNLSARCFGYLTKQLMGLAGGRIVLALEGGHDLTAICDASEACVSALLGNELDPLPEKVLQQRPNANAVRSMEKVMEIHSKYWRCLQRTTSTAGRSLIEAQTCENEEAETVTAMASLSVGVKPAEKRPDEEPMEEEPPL
Chain of Histone deacetylase 1 (Q13547 whole entry): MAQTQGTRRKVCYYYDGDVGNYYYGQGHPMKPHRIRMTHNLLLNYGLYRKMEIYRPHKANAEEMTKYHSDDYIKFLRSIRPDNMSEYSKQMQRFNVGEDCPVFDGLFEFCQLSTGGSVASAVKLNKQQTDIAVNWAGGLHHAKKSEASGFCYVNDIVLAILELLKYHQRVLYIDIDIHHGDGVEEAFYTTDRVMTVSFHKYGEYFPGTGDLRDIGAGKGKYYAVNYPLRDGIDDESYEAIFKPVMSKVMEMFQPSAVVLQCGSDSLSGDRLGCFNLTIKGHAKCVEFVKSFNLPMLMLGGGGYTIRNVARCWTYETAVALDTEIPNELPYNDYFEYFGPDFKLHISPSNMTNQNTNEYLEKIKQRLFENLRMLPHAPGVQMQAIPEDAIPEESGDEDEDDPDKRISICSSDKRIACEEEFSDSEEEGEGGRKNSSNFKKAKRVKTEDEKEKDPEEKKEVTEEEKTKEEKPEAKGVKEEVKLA
Chain of Histone deacetylase 2 (Homo sapiens) (Q92769 whole entry): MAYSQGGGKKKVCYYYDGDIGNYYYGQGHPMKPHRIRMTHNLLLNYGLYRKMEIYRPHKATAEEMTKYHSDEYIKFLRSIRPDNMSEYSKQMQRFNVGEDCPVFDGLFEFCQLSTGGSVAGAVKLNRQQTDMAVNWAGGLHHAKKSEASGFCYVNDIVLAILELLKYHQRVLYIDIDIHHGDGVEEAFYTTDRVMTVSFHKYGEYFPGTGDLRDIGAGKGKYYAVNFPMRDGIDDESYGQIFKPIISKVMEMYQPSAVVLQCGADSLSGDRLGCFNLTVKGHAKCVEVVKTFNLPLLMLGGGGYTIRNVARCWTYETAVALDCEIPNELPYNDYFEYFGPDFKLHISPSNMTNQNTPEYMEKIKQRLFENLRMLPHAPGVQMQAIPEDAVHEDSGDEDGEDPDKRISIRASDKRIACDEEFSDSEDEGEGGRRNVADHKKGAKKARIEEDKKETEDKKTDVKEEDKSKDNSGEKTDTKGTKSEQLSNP

| Compound | IC50 (CAL-27 [2]) [µM] | inhibition [3] [%] | IC50 (cells [4]) [µM] | IC50 (cells [5]) [µM] | IC50 (Histone deacetylase 4) [µM] | IC50 (cells [6]) [µM] | inhibition [7] [%] | Activity (A2780cisR [8]) | Activity (Cal27CisR) | IC50 [9] [µM] | IC50 (Histone deacetylase 8) [µM] | IC50 (cells [10]) [µM] | IC50 [11] [µM] | IC50 (A2780cisR [12]) [µM] | IC50 (cells [16]) [µM] | IC50 (A2780 [18]) [µM] | also measured |
| --- | --- | --- | --- | --- | --- | --- | --- | --- | --- | --- | --- | --- | --- | --- | --- | --- | --- |
| CN(C)c1ccc(C(=O)N(CC(=O)NCc2ccccc2)Cc2ccc(C(=O)NNc3ccccc3)cc2)cc1 | 60.8 | < 25 | 21.5 | 36 | > 10 | 27.7 | < 25 | inactive | inactive | 3.82 | > 10 | 24.3 | > 10 |  |  |  | Activity (A2780 [1]): inactive |
| CN(C)c1ccc(C(=O)N(CC(=O)NCc2ccccc2)Cc2ccc(C(=O)NNCC3CC3)cc2)cc1 | 1.99 | < 25 | 0.388 | 0.974 | > 10 | 0.722 |  |  |  |  |  | 0.392 | > 10 | 9.08 | 2.67 | 2.61 | IC50 (cells [13]): 2.97 µM; IC50 (cells [14]): 1.28 µM; IC50 (cells [15]): 11.9 µM; IC50 (cells [17]): 8.56 µM |
| CN(C)c1ccc(C(=O)N(CC(=O)NCc2ccccc2)Cc2ccc(C(=O)NNCCCc3ccccc3)cc2)cc1 | 10.3 |  | 2.46 | 2.97 | > 10 | 2.21 |  |  |  | 1.2 |  | 1.96 | > 10 | 35.5 | 21.6 | 5.9 | inhibition [19]: < 25% |
| CCCCCNNC(=O)c1ccc(CN(CC(=O)NCc2ccccc2)C(=O)c2ccc(N(C)C)cc2)cc1 | 0.843 |  | 0.264 | 0.334 | > 10 | 0.273 |  |  |  | 0.072 |  | 0.218 | > 3.33 | 3.38 | 1.5 | 0.675 | inhibition [19]: < 25% |
| CN(C)c1ccc(C(=O)N(CC(=O)NCc2ccccc2)Cc2ccc(C(=O)Nc3ccccc3N)cc2)cc1 | 2 |  | 0.327 | 1.63 | > 10 | 1.22 |  |  |  |  | > 10 | 0.491 | > 10 | 8.28 | 2.63 | 4.33 | IC50 (cells [13]): 9.34 µM; IC50 (cells [14]): 6.47 µM; IC50 (cells [15]): 47.6 µM; IC50 (cells [17]): 49.8 µM |
| CN(C)c1ccc(C(=O)N(CC(=O)NCc2ccccc2)Cc2ccc(C(=O)NN)cc2)cc1 | 63.5 |  | 30.9 | 37.7 | > 10 | 33.1 | < 25 | inactive | inactive |  | > 10 | 35.9 |  |  |  |  | Activity (A2780 [1]): inactive; inhibition [20]: 57%; inhibition [21]: 53%; inhibition (Histone deacetylase 1): 62%; inhibition [22]: 55% |
| CN(C)c1ccc(C(=O)N(CC(=O)NCc2ccccc2)Cc2ccc(C(=O)NNCCC(C)(C)C)cc2)cc1 |  | < 25 | 83.4 |  | > 10 |  | < 25 | inactive | inactive | > 10 | > 10 | 43.6 | > 10 |  |  | 70.2 | inhibition (A2780 cisR): inactive; inhibition [23]: < 25%; inhibition [21]: 46%; Activity (CAL-27 [24]): inactive; inhibition (A2780 [25]): inactive; inhibition (Histone deacetylase 1): 63% |
| CC(C)CCNNC(=O)c1ccc(CN(CC(=O)NCc2ccccc2)C(=O)c2ccc(N(C)C)cc2)cc1 | 3.41 | < 25 | 0.83 | 2.08 | > 10 | 2.91 |  |  |  | 0.199 |  | 0.931 | > 10 | 15.8 | 8.5 | 4.94 |  |
| CN(C)c1ccc(C(=O)N(CC(=O)NCc2ccccc2)Cc2ccc(C(=O)NNCCC(F)(F)F)cc2)cc1 | 2.2 | < 25 | 0.379 | 0.91 | > 10 | 0.691 | < 25 |  |  | 0.037 | > 10 | 0.385 | > 10 | 8.05 | 3.14 | 2.25 |  |
